Results as given in US20250339569A1, “CARBONIC ANHYDRASE IX LIGANDS” (priority 2021, published 2025).
Like-named read-outs stand apart in the source and are kept apart here.

Tests used:
CAIV (hCAIV-bio) = target: T1, CAIV (hCAIV-bio) (Homo sapiens, UniProt P22748); assay: SPR selectivity assay with biotinylated CAIV; format: binding
T1 construct: purchased SinoBliological (Sino Biological) 10472-1H081H
Protocol: (§1) In order to test selectivity of CAIX-binding peptides toward CAIV (SinoBliological, Cat #10472-1H081H), CAXII (SinoBliological, Cat #10617-H08H or CAXIV (SinoBliological, Cat #10458-H08H), SPR assays were performed analog to the assay described above but with a different target capture procedure. For immobilization, the carbonic anhydrases were biotinylated and capture on the SPR chip using the Biotin CAPture Kit (cytiva) according to the manufacturer instructions using HBSTE, 0.1% as Running Buffer.
(§2) Table 13 describes the protocol steps for biotinylated target capturing and assessment of the binding kinetics.

CAXIV (hCAXIV-bio) = target: T2, CAXIV (hCAXIV-bio) (Homo sapiens, UniProt Q9ULX7); assay: SPR selectivity assay with biotinylated CAXIV; format: binding
T2 construct: purchased SinoBliological (Sino Biological) 10458-H08H
T2 sequence (Q9ULX7 16-337): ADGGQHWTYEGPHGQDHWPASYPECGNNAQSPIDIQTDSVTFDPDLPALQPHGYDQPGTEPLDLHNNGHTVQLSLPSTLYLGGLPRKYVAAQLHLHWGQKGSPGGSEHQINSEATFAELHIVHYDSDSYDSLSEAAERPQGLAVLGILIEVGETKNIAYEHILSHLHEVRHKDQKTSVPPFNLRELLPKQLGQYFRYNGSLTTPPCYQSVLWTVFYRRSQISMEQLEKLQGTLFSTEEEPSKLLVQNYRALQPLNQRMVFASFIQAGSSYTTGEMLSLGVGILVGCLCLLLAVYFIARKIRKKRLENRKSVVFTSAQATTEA
Protocol: as §1, §2

[1] = target: T3, human carbonic anhydrase IX (hCAIX-Fc) (Homo sapiens, UniProt Q16790); assay: Surface plasmon resonance assay with hCAIX-Fc; format: binding; conditions: for t1/2 category (activity): SPR dissociation half-life, hCAIX-Fc; for t1/2 category (activity) / Kd: 25° C.; for pKD category (affinity) CAIX / Kd: SPR; for pKD category (affinity) CAIX: hCAIX; for Kd: hCAIX-Fc captured, read-out: pKD category (activity) (converted)
T3 construct: purchased SinoBliological (Sino Biological) 10107-H02H

[2] = target: T4, CAIX-expressing human HT-29 colorectal cancer cells (Homo sapiens, UniProt Q16790); assay: FACS binding assay (IC50 determination, competition with tracer 3BP-2776 or 3BP-4149)
T4 construct: CAIX-expressing human HT-29 colorectal cancer cells; host or cells: HT-29 human colorectal cancer cells
Procedure, shortened: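 HT-29 cells in FACS buffer (PBS, 1% FCS) at 500.000 cells/ml were exposed to compounds competing with a labelled tracer, with biotinylated compounds detected by 1 μg/mL APC-streptavidin for 30 min on ice. APC/Cy5 median fluorescence was read by flow cytometry and IC50 derived by 4PL fit.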

CAXII (hCAXII-bio) = target: T5, CAXII (hCAXII-bio) (Homo sapiens, UniProt O43570); assay: SPR selectivity assay with biotinylated CAXII; format: binding
T5 construct: purchased SinoBliological (Sino Biological) 10617-H08H
T5 sequence (O43570 25-354): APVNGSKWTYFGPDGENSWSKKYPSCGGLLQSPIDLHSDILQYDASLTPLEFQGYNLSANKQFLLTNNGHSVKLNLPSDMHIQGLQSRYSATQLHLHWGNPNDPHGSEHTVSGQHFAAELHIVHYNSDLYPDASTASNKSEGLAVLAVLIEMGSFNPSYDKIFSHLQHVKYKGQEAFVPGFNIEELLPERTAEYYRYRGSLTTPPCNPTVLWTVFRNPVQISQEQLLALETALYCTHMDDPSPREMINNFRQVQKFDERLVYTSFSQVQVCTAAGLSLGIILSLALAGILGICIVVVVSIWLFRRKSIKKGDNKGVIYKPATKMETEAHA
Protocol: as §1, §2

human CAIX = human CAIX (Homo sapiens, UniProt Q16790); assay: Radioligand binding assay, 111In-labeled compounds, CHO-VGT cells with human CAIX; design: host or cells: CHO-VGT / CHO cells
Protocol: (§3) In order to assess the affinity of ^111In-labeled compounds to CAIX of different species, a radioligand binding assay was established.
(§4) CHO-VGT cells were transfected with the human, dog, and mouse CAIX (InSCREENex GmbH) and cultured in Ham's F-12 medium (Sigma-Aldrich #N4888) supplemented with 10% fetal bovine serum (FCS), 2 mM L-glutamine, 100 U/mL Penicillin, and 0.1 mg/mL streptomycin. Cells were detached with Accutase (Biolegend #423201) and counted using a particle counter (CASY Model TT; Scharfe Systems, Germany). Cell concentrations were adjusted to 3×10^5 mL^−1, and 1.000 μL of the suspension per well were dispensed into flat-clear-bottom 24 well plates.
(§5) Approximately 24 hours after re-seeding, the medium was aspirated and the cells were washed once with 1000 μL assay medium (Ham's medium without additives). To determine total binding, 700 μL of assay medium and 100 μL of the radioligand dilutions were added to the wells in triplicates. To determine non-specific binding, 600 μL of binding medium, 100 μL of the radioligand dilutions and 100 μL of a blocking solution containing 8 μM non-labeled compound were added to the wells in triplicates. At the end of incubation time (8 h at 37° C.), cells were washed and subsequently harvested in 300 μL RIPA buffer (Thermo Scientific #89901) containing Protease Inhibitor Cocktail Set I (Calbiochem #539131). Radioactivity of the cell lysate of each well was counted using a gamma counter (1470 Wizard, PerkinElmer, USA). An aliquot of each radioligand dilution was included in the gamma counter measurements to allow for determination of their actual concentrations via their known specific activity.

dog CAIX = assay: Radioligand binding assay, 111In-labeled compounds, CHO-VGT cells with dog CAIX; conditions: 111In-labeled compound, 8 h at 37°C
Protocol: as §3, §4, §5

mouse CAIX = target: T6, mouse CAIX (Mus musculus, UniProt Q8VHB5); assay: Radioligand binding assay, 111In-labeled compounds, CHO-VGT cells with mouse CAIX
T6 construct: host or cells: CHO-VGT / CHO cells
T6 sequence (Q8VHB5 32-437): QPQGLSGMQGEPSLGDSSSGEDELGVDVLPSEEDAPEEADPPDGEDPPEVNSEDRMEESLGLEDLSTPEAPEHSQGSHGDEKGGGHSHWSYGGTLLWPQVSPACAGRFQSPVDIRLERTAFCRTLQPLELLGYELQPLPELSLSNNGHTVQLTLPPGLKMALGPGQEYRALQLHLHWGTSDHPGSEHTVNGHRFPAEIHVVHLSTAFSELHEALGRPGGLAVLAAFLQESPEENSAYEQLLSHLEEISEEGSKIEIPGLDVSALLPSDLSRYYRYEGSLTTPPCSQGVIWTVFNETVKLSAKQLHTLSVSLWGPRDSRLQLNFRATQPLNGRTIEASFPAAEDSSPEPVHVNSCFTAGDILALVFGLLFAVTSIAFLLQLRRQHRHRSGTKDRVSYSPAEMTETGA
Protocol: as §3, §4, §5

[3] = Biodistribution study (SPECT/CT) in SK-RC-52 tumor-bearing mice with or without gelofusine; format: in vivo, NMRI nude mice; conditions: female, NMRI nude, mouse, in vivo, iv, total radioactivity
Protocol: (§6) The effect on tumor uptake of prior injection of gelofusine for kidney protection was investigated in mice bearing the SK-RC-52 tumor. Biodistribution was evaluated using in vivo SPECT/CT imaging. Prior to the in vivo study the compounds (ligands) were initially radiolabeled with In-111 and the stability of radiolabeled compounds was evaluated in buffer at three different timepoints.
(§7) The study was performed in female NMRI nude mice (approximately 6 weeks of age) from Janvier Labs, France, housed up to 5 mice per cage.
(§8) The column was washed with 2 mL water, and then the final product was eluted from the column in EtOH solution (50%) • The sample was formulated in PBS to the final concentration of 150 MBq/mL and 5 nmol/mL.
(§9) SK-RC-52 cells were cultured in RPMI 1640 with GlutaMax-I (Thermo Fisher Scientific #61870044) supplemented with 10% fetal bovine serum+1% penicillin/streptomycin, harvested, washed twice in RPMI 1640 and resuspended at 2×10^7 cells/mL in RPMI 1640. HT-29 cells were cultured in McCoy's 5a Medium Modified (Sigma #M9309). For inoculation of HT-29 cells, cells were harvested, washed twice in PBS and resuspended at 5×10^7 cells/mL in PBS. Cells were kept on ice until inoculation.
(§10) Animals were anaesthetized (isoflurane, 2-4% in ambient air supplemented with 100% 02) prior to tumor inoculation. The tumor cells (100 μL suspension of either SK-RC-52 cells (2×10^6 cells/animal) or HT-29 cells (5×10^6 cells/animal)) were subcutaneously inoculated in the right flank using a 1-mL syringe equipped with a 27 G needle. Tumor growth and animal weight were measured twice per week. Tumor size was measured by caliper and the volume was estimated using the following formula: 0.52×(length×width^2). When tumor sizes reached 150-250 mm^3, animals were randomized into groups (n=3) of similar average tumor volume and body weight.
(§11) Animals were injected intravenously with In-111-labeled compounds (single bolus, 22.3-31.2 MBq, ˜1 nmol ligand, injection volume: 100 μL) in the lateral tail vein using a 29 G syringe.
(§12) CT was performed with helical scan, 300 ms exposure, reconstruction resolution of 250 μm. SPECT was performed with multi-pinhole scan and a 30 s frame time. For the quantification of the radioactivity uptake, regions of interests (ROIs) were drawn over the tumor, kidney, liver, and heart (estimate of blood) identified on the images. Uptake was expressed as percent of injected dose per gram tissue (% ID/g).

SK-RC-52 tumor = assay: as above; format: in vivo, NMRI nude mice; conditions: mouse, in vivo
Protocol: as §6, §7, §8, §9, §10, §11, §12

HT-29 tumor = assay: Biodistribution study (SPECT/CT) in HT-29 tumor-bearing mice; format: in vivo, NMRI nude mice; conditions: mouse, in vivo
Protocol: as §6, §7, §8, §9, §10, §11, §12

[4] = as above; format: in vivo, NMRI nude mice; conditions: female, NMRI nude, mouse, in vivo, iv, total radioactivity
Protocol: as §6, §7, §8, §9, §10, §11, §12

[5] = Tumor/Blood uptake ratio at 4 h p.i.
[6] = Tumor/Liver uptake ratio at 4 h p.i.

T1 sequence (P22748 19-284): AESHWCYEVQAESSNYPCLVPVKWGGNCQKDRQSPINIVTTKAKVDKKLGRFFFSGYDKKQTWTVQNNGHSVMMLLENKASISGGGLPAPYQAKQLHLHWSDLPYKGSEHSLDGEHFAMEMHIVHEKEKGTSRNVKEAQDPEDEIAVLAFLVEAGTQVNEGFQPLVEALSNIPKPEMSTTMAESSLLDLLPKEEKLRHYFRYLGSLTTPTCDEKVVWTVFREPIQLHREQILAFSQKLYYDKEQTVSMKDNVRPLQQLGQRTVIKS

Structure (SMILES): CC(C)C[C@@H]1NC(=O)[C@H](Cc2cccc(NC(=O)CCCS(N)(=O)=O)c2)NC(=O)[C@H](CC(=O)O)NC(=O)[C@H]2CCCN2C(=O)[C@H](CCC(=O)O)NC(=O)[C@@H](NC(=O)[C@H](CCC(N)=O)NC(=O)CN2CCN(C(=O)CN3CCN(CC(=O)O)CCN(CC(=O)O)CCN(CC(=O)O)CC3)CC2)CSCc2cccc(c2)CSC[C@@H](C(N)=O)NC(=O)[C@H](CO)NC(=O)[C@H](Cc2c[nH]c3ccccc23)NC(=O)[C@H]([C@@H](C)O)NC1=O [3BP-4452, DOTA-PPAc-Gln-[Cys(3MeBn)-Glu-pro-Asp-Af3(Cpsu)-Leu-Thr-Trp-Ser-Cys]-NH2]
- Kd (CAIV (hCAIV-bio)): > 1000 nM
- Kd (CAXIV (hCAXIV-bio)): > 1000 nM
- t1/2 category (activity) [1]: A (t1/2>15.0 minutes)
- pKD category (affinity) CAIX [1]: A (pKD values >8.0)
- Kd [1]: < 10 nM
- IC50 [2]: < 10 nM
- Kd (CAXII (hCAXII-bio)): > 1000 nM
- Kd (human CAIX): < 10 nM
- pKD category (activity) (dog CAIX): A (pKD values >8.0)
- Kd (mouse CAIX): 10 to 79.4 nM

Structure (SMILES): CC(C)C[C@@H]1NC(=O)[C@H](Cc2ccc(NC(=O)CCS(N)(=O)=O)cc2)NC(=O)[C@H](CC(=O)O)NC(=O)[C@H]2CCCN2C(=O)[C@H](CCC(=O)O)NC(=O)[C@@H](NC(=O)[C@H](CCC(N)=O)NC(=O)CN2CCN(CC(=O)O)CCN(CC(=O)O)CCN(CC(=O)O)CC2)CSCc2cccc(c2)CSC[C@@H](C(N)=O)NC(=O)[C@H](CO)NC(=O)[C@H](Cc2c[nH]c3ccccc23)NC(=O)[C@H]([C@@H](C)O)NC1=O [3BP-4501, DOTA-Gln-[Cys(3MeBn)-Glu-pro-Asp-Aph(SaPr)-Leu-Thr-Trp-Ser-Cys]-NH2]
- Kd (CAIV (hCAIV-bio); SPR, biotinylated CAIV, read-out: pKD category (affinity) CAIV (converted)): > 1000 nM
- Kd (CAXIV (hCAXIV-bio); SPR, biotinylated CAXIV, read-out: pKD category (affinity) CAXIV (converted)): > 1000 nM
- t1/2 category (activity) [1]: A (t1/2>15.0 minutes)
- pKD category (affinity) CAIX [1]: A (pKD values >8.0)
- Kd [1]: < 10 nM
- IC50 ([2]; FACS binding assay, HT-29 cells, competition with tracer 3BP-2776 (10 nM, biotin-labeled), 4° C., 1 hour, read-out: pIC50 category (activity) (converted)): < 10 nM
- Kd (CAXII (hCAXII-bio); SPR, biotinylated CAXII, read-out: pKD category (affinity) CAXII (converted)): > 1000 nM
- Kd (human CAIX; 111In-labeled compound, Human CAIX, 8 h at 37°C, read-out: pKD category (activity) (converted)): < 10 nM
- pKD category (activity) (dog CAIX): A (pKD values >8.0)
- Kd (mouse CAIX; 111In-labeled compound, Mouse CAIX, 8 h at 37°C, read-out: pKD category (activity) (converted)): 10 to 79.4 nM

Structure (SMILES): CC(C)C[C@@H]1NC(=O)[C@H](Cc2ccc(NC(=O)CCS(N)(=O)=O)cc2)NC(=O)[C@H](CC(=O)O)NC(=O)[C@H]2CCCN2C(=O)[C@H](CCC(=O)O)NC(=O)[C@@H](NC(=O)[C@H](CCC(N)=O)NC(=O)CN2CCN(CC(=O)O)CCN(CC(=O)O)CCN(CC(=O)O)CC2)CSCc2cccc(c2)CSC[C@@H](C(N)=O)NC(=O)[C@H](CO)NC(=O)[C@H](Cc2c[nH]c3ccccc23)NC(=O)[C@H]([C@@H](C)O)NC1=O [DPI-4501, DOTA-Gln-[Cys(3MeBn)-Glu-pro-Asp-Aph(SaPr)-Leu-Thr-Trp-Ser-Cys]-NH2]
- tissue uptake at 4 h ([3]; Blood uptake at 4 h p.i.): 0.05 ± 0.01 %ID/g
- tissue uptake at 4 h ([3]; Liver uptake at 4 h p.i.): 0.08 ± 0.01 %ID/g
- tissue uptake ([3]; Peak Tumor Uptake): 7.17 ± 1.92 %ID/g
- tissue to tissue ratio at 4 h [3, 5]: 128 ± 20.3
- tissue to tissue ratio at 4 h [3, 6]: 70.2 ± 17
- Peak Tumor Uptake (SK-RC-52 tumor; female, NMRI nude, iv): 6.01 ± 0.39 % ID/g
- Blood uptake at 4 h p.i. (SK-RC-52 tumor; female, NMRI nude, iv, 4 h): 0.03 ± 0.003 % ID/g
- Liver uptake at 4 h p.i. (SK-RC-52 tumor; female, NMRI nude, iv, 4 h): 0.07 ± 0.01 % ID/g
- Tumor/Blood uptake ratio at 4 h p.i. (SK-RC-52 tumor; female, NMRI nude, iv, 4 h): 178.6 ± 39.3
- Tumor/Liver uptake ratio at 4 h p.i. (SK-RC-52 tumor; female, NMRI nude, iv, 4 h): 81.4 ± 14.0
- Time to peak uptake in tumor (SK-RC-52 tumor): 1 h
- Time to peak uptake in tumor (HT-29 tumor): 2 h
- % remaining tumor uptake at 24 h p.i. (HT-29 tumor; 24 h): 80 ± 4.4%
- tissue uptake at 4 h ([4]; Blood uptake at 4 h p.i.): 0.04 ± 0.005 %ID/g
- tissue uptake at 24 h ([4]; Kidney uptake at 24 h p.i.): 2.16 ± 0.36 %ID/g
- tissue uptake at 4 h ([4]; Liver uptake at 4 h p.i.): 0.12 ± 0.01 %ID/g
- tissue uptake ([4]; Peak Kidney uptake): 5.61 ± 0.57 %ID/g
- tissue uptake ([4]; Peak Tumor Uptake): 3.81 ± 0.26 %ID/g
- tissue to tissue ratio at 4 h [4, 5]: 104 ± 10.2
- tissue to tissue ratio at 4 h [4, 6]: 29.8 ± 2.5
- tissue to tissue ratio at 24 h ([4]; Tumor/kidney uptake ratio at 24 h p.i.): 1.5 ± 0.1
